Data as given in patent US20060029544A1, “Receptor-binding cyclic peptides and methods of use” (The Regents of the University of California Office of …, priority 2004, published 2006).
Values joined by “and” are separate entries in the source; they are usually repeats but may differ in a detail not shown here. Equal entries are not always repeated.

Experiments:
A375M melanoma cell line [1] = test: Adhesion assay: [51Cr]-A375M cells to laminin; type: cell-based, human
Experimental: (§1) RGD peptides were plated at a maximum concentration of 200 μM and a minimum concentration of 2 nM. For each RGD peptide sequence, linear peptides (A), cyclic peptides (B), and 4-[^19F]-fluorobenzoyl cyclic peptides (C) were assayed. Each RGD peptide concentration was performed in quadruplicate and each experiment was repeated twice.
(§2) Plastic 96-well plates (Falcon 3912; Becton Dickinson) were coated with 50 μl substrate (10 μg/ml laminin or 5 μg/ml vitronectin). The plates were incubated at 37° C. in an 8% CO2 atmosphere for 1 hour. Unbound protein was flicked off and the plates were washed with phosphate buffered saline (PBS) and blocked with bovine serum albumin (0.1% w/v BSA)/PBS/0.1% sodium azide) for 1 hour. The plates were then washed with PBS, placed on a bed of ice and 25 μl of peptide was added to the wells.
(§3) Sodium [^51Cr] chromate was purchased from Amersham International, UK. The solution was made isotonic by the addition of 110 μl 10× Hanks buffered salt solution. 100 μl of this solution (3.7 MBq) was added to 5-10×10^6 cells in 500 μl of serum-containing growth medium. The suspension was incubated at 37° C. for 45 minutes with regular agitation to resuspend the cells. The cells were then washed and spun 3 times with serum-free E4 medium to remove any free [^51Cr]chromium. A trypan blue viability count was performed and the cells were diluted to the necessary volume in serum-free E4 medium (4×10^5 cells/ml).
(§4) 25 μl (about 10,000 cells) were added to each quadruplicate well and the plates incubated at 37° C. in an 8% CO2 atmosphere for 1 hour. Unbound cells were flicked off and the plates were washed twice with PBS/BSA containing 1 mM CaCl2 and 0.5 mM MgCl2. The plates were dabbed dry and cut into individual wells. The radioactivity associated with each well was determined in a gamma counter (1261 Multigamma; Wallac, Sweden). Quadruplicate 25 μl samples of labeled cells were counted as 100% input values. To determine non-specific binding, the ability of cells to bind BSA-coated wells was also assessed. Data for these wells are referred to as background.
The results were calculated as follows: [formula] [formula] NMR Spectroscopy of RGD Peptides
The A375M and VUP melanoma cell lines were used with vitronectin and laminin as substrates. Peptides were titrated in 10-fold dilutions from 200 μM to 2 nM. All data were normalized to the absence of peptide, which corresponded to 100% adhesion. All titrations were performed in quadruplicate and each experiment was repeated at least twice.

VUP melanoma cell line [2] = test: Adhesion assay: [51Cr]-VUP cells to laminin; type: cell-based
Experimental: as §1, §2, §3
as §4, with “Data for these wells are referred to as background.” left out
(§5) The results were calculated as follows: [formula] […]

αvβ5 integrin = biological target: T1, αvβ5 integrin (Homo sapiens, UniProt P06756+P18084); test: ELISA: biotinylated vitronectin binding to captured soluble αvβ5-mFc in the presence of RGD peptides
T1 construct: chimeras comprising the extracellular domain of αvβ3, αvβ5, α5β1, and αIIbβ3 linked to the Fc domain of either mouse IgG; purchased Celltech plc (supplied, no catalogue number); host or cells: unpurified hybridoma / tissue culture supernatant from secreting cells
T1 sequence (P06756 31-992 limits assumed): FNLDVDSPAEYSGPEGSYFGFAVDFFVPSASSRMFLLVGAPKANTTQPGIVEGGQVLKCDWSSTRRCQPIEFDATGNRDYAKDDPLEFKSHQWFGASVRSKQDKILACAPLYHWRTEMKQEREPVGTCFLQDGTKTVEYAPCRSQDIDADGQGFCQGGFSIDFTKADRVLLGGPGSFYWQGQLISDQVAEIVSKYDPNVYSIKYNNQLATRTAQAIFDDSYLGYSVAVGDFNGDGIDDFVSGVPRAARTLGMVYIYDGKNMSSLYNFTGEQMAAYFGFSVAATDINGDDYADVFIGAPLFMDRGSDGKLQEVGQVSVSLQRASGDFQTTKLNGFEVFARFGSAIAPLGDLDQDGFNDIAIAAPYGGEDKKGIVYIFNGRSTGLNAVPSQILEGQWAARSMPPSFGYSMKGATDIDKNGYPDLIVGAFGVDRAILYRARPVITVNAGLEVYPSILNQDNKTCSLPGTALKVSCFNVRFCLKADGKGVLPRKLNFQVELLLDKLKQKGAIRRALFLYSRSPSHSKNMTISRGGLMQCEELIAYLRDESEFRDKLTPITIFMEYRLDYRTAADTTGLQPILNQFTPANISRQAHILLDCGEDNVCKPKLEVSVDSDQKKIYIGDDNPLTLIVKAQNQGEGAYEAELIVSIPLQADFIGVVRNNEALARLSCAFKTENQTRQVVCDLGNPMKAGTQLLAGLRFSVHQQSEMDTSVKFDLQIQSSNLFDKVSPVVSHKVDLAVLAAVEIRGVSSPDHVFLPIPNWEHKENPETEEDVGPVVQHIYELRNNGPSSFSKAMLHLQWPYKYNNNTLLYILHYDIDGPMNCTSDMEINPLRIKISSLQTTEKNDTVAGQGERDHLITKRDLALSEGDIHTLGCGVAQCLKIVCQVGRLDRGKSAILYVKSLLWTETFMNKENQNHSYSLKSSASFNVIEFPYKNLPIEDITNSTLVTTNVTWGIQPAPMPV
T1 sequence (P18084 24-719 limits assumed): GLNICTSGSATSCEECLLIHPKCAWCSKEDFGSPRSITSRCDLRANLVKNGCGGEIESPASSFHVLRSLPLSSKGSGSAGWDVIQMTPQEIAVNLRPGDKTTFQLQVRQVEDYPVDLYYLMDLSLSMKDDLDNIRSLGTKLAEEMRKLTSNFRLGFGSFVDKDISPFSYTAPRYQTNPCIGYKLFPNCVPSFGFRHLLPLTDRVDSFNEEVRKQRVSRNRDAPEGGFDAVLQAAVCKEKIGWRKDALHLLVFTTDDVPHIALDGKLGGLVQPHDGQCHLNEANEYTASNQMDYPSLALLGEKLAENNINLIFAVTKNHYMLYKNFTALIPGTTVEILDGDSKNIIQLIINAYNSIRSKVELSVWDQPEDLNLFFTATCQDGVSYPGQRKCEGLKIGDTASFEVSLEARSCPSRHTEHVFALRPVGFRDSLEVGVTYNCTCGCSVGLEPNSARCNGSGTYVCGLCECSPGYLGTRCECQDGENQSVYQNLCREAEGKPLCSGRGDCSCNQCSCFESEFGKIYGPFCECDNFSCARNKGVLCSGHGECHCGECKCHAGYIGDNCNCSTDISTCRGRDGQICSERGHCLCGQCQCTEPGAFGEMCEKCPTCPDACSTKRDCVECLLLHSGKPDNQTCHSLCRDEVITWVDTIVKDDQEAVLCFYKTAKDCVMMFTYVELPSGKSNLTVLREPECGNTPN
Description: (§6) Four different soluble integrins were supplied by Celltech plc. Soluble forms of αvβ3, αvβ5, α5β1, and αIIbβ3 integrin were generated by constructing chimeras comprising the extracellular domain of αvβ3, αvβ5, α5β1, and αIIbβ3 linked to the Fc domain of either mouse IgG (αvβ3-mFc, αvβ5-mFc, and αIIbβ3-mFc) or human IgG (α5β1-hFc) as described by Stephens et al., Cell Adhes. Commun., 7:377-390 (2000) and Coe et al., J. Biol. Chem., 276:35854-35866 (2001). Since the four soluble integrin chimeras were supplied either as purified proteins (αvβ3-mFc and α5β1-hFc) or as unpurified hybridoma supernatants (αIIbβ3-mFc and αvβ5-mFc), it was necessary to use two types of ELISAs. […] In one type of ELISA (FIGS. 2A and 2B), the immobilized component is a 50 kDa fragment of fibronectin. In the second type of ELISA (FIGS. 2C and 2D), the immobilized component is a goat anti-mFc antibody that is used to capture chimeric proteins so that the RGD binding site of the integrin is maximally exposed. Each three-sided box in FIG. 2 represents a single well of a 96-well plate, and the components are listed in the sequence of their addition to the assay. The immobilized component at the bottom of the well is bound to the well by electrostatic interactions.
To analyze the affinity and selectively of RGD peptides for αIIbβ3 and αvβ5, 96-well ELISA plates were coated with anti-murine Fc antibody at 5 μg/ml in PBS, 100 μl per well and left overnight at 4° C. The plates were washed with PBS using a Denley Wellwash 4 Mk 2. Washing was repeated twice with a 400 μl wash per well. 200 μl/well of blocking buffer was then added for 1 hour followed by a repeat washing with PBS. 100 μl of tissue culture supernatant from cells secreting soluble αIIbβ3-mFc or αvβ5-mFc, diluted 1:2 in conjugate buffer, was added to each well. Plates were incubated with shaking for 1 hour followed by two washes with PBS. 100 μl of an RGD peptide (at concentrations of 200, 20, and 2 μM), followed by either 100 μl of biotinylated fibrinogen (at 1 μg/ml in conjugate buffer) or 100 μl of biotinylated vitronectin (at 2 μg/ml in conjugate buffer) were added to each well and incubated for 2 hours with shaking. After incubation, the plates were washed with PBS as described above. 100 μl of neutravidin-peroxidase was added to each well and the plates were incubated for 30 minutes with shaking, followed by two washes with PBS. 100 μl of TMB substrate was added to each well and the plates were shaken during color development. Plates were read using a plate spectrophotometer at 630 nm.
(§7) Two negative and two positive controls were used in both types of ELISAs. For example, the negative controls were wells that contained 50 μl of an active control peptide, integrin, and biotinylated ligand or 50 μl of the active control peptide and 50 μl of buffer. These negative control wells typically develop little to no color. […] These wells typically develop the maximum amount of color.
(§8) FIGS. 3-6 illustrate the percent binding of the vitronectin, fibronectin, or fibrinogen ligand to αvβ5, α5β1, αIIbβ3, or αvβ3 integrin in the presence of RGD peptides (i.e., linear (A), cyclic (B), or 4-[^19F]-fluorobenzoyl cyclic (C)) at different concentrations, with 100% maximum signal being the signal obtained in the absence of the peptide.

αvβ3 integrin = biological target: T2, αvβ3 integrin (Homo sapiens, UniProt P05106+P06756); test: ELISA: soluble αvβ3-mFc binding to immobilized 50 kDa fibronectin fragment in the presence of RGD peptides
T2 construct: chimeras comprising the extracellular domain of αvβ3, αvβ5, α5β1, and αIIbβ3 linked to the Fc domain of either mouse IgG; purchased Celltech plc (supplied, no catalogue number)
T2 sequence (P06756 31-992 limits assumed): as the sequence (P06756 31-992 limits assumed) above
T2 sequence (P05106 27-718 limits assumed): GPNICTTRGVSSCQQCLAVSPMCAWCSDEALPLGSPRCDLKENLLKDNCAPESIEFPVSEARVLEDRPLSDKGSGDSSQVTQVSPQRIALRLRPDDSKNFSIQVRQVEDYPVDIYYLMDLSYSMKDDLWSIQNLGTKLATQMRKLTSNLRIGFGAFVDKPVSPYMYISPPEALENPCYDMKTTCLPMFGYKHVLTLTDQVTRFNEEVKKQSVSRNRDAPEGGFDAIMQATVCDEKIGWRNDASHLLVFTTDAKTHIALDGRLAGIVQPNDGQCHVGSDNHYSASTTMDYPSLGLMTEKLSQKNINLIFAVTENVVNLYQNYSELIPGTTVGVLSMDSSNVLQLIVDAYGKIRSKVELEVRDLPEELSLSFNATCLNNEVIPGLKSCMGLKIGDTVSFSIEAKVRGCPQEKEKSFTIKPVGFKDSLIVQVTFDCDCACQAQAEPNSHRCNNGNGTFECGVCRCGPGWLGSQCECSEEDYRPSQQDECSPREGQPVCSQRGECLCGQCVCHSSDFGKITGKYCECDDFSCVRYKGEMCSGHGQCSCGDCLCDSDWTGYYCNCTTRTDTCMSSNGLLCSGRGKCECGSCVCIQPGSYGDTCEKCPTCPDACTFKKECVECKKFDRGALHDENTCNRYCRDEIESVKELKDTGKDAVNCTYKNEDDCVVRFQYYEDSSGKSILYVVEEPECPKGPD
Description: as §6
The plates were washed with PBS using a Denley Wellwash 4 Mk 2. Washing was repeated twice with a 400 μl wash per well. […] Plates were read using a plate spectrophotometer at 630 nm.
(§9) Two negative and two positive controls were used in both types of ELISAs.
as §8

α5β1 integrin = biological target: T3, α5β1 integrin (Homo sapiens, UniProt P05556+P08648); test: ELISA: soluble α5β1-hFc binding to immobilized 50 kDa fibronectin fragment in the presence of RGD peptides
T3 construct: chimeras comprising the extracellular domain of αvβ3, αvβ5, α5β1, and αIIbβ3 linked to the Fc domain of either mouse IgG; purchased Celltech plc (supplied, no catalogue number)
T3 sequence (P08648 42-995 limits assumed): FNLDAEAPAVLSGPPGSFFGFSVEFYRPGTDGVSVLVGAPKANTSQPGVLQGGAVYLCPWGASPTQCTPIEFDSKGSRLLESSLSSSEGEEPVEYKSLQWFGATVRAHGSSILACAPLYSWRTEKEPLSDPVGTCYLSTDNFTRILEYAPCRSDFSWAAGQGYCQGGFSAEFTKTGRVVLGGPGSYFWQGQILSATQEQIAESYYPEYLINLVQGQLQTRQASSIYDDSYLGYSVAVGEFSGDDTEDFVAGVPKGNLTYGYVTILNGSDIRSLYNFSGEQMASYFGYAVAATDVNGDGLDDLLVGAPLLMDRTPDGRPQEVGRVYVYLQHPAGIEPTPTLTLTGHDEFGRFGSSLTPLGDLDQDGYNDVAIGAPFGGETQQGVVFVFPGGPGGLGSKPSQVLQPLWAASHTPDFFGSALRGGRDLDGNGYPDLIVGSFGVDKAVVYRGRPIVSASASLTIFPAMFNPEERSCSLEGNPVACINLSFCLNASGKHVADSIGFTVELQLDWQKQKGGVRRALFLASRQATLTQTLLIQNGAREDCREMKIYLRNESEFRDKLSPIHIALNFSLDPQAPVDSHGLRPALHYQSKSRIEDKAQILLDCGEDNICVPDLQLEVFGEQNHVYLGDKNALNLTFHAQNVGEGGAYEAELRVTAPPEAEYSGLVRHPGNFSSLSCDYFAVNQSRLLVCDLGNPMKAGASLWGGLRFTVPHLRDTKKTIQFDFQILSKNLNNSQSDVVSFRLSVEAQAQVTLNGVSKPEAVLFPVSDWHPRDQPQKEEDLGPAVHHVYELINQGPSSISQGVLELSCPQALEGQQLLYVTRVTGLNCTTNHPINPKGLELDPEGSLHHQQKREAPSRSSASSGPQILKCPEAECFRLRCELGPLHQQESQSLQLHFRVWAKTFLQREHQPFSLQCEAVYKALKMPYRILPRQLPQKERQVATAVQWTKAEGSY
T3 sequence (P05556 21-728 limits assumed): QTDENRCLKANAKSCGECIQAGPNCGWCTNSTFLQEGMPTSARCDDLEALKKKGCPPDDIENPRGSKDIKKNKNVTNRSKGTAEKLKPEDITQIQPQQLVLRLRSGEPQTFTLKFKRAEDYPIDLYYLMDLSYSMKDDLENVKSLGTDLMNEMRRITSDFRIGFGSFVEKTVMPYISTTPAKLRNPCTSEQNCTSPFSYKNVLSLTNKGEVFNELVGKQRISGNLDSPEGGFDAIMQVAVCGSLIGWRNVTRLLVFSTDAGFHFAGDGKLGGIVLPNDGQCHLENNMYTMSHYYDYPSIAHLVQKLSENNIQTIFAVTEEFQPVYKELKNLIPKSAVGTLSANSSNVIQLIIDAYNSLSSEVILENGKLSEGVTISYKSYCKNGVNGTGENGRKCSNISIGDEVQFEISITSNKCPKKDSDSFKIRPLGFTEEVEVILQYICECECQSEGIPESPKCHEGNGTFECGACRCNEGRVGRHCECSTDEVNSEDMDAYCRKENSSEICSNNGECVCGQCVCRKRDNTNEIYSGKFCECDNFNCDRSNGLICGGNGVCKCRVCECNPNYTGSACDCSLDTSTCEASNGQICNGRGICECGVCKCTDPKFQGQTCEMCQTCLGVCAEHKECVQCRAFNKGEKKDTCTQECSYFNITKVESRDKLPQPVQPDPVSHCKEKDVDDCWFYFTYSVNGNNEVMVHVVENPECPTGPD
Description: as §6
To analyze the affinity and selectively of RGD peptides for αvβ3 and α5β1, 96-well ELISA plates were coated with 100 μl of a 5 μg/ml of the 50 kDa fragment of fibronectin in PBS per well and left overnight at 4° C. The plates were washed with PBS using a Denley Wellwash 4 Mk 2. Washing was repeated twice with a 400 μl wash per well. 200 μ/well of blocking buffer (i.e., to prevent non-specific binding of proteins) was then added for 1 hour followed by a repeat washing with PBS. RGD peptides were then added at a maximum concentration of 200 μM and a preliminary screen was performed at three concentrations, 200,20, and 2 μM. 100 μl of an RGD peptide was added to each well and each assay was performed in triplicate. Purified soluble αvβ3-mFc or purified α5β1-hFc was diluted to 2 μg/ml and 15 ng/ml, respectively, in conjugate buffer and 100 μl was added to each well. The plates were incubated for 2 hours with shaking using a Luckham R100 Rotatest at approximately 150 rpm. After incubation, the plates were washed with PBS as previously described and a labeled antibody was added. For the αvβ3 assay, a horseradish peroxidase (HRP)-labeled F(ab′)2 fragment of goat anti-mouse IgG Fc was diluted 1:2000 in conjugate buffer and 100 μl was added to each well. For the α5β1 assay, an HRP-labeled F(ab′)2 fragment of goat anti-human IgG Fc was diluted 1:2000 in conjugate buffer and 100 μl was added to each well. Plates were incubated for 30 minutes with shaking followed by 2 washes with PBS. 100 μl of TMB substrate was added to each well and plates were shaken during a 10 minute color development. Plates were read using a plate spectrophotometer at 630 nm.
as §7, §8

αIIbβ3 integrin = biological target: T4, αIIbβ3 integrin (Homo sapiens, UniProt P05106+P08514); test: ELISA: biotinylated fibrinogen binding to captured soluble αIIbβ3-mFc in the presence of RGD peptides
T4 construct: chimeras comprising the extracellular domain of αvβ3, αvβ5, α5β1, and αIIbβ3 linked to the Fc domain of either mouse IgG; purchased Celltech plc (supplied, no catalogue number); host or cells: unpurified hybridoma / tissue culture supernatant from secreting cells
Description: as §6
The plates were washed with PBS using a Denley Wellwash 4 Mk 2. Washing was repeated twice with a 400 μl wash per well. 200 μl/well of blocking buffer was then added for 1 hour followed by a repeat washing with PBS. 100 μl of tissue culture supernatant from cells secreting soluble αIIbβ3-mFc or αvβ5-mFc, diluted 1:2 in conjugate buffer, was added to each well. […] After incubation, the plates were washed with PBS as described above. 100 μl of neutravidin-peroxidase was added to each well and the plates were incubated for 30 minutes with shaking, followed by two washes with PBS. 100 μl of TMB substrate was added to each well and the plates were shaken during color development. Plates were read using a plate spectrophotometer at 630 nm.
as §9, §8

VUP melanoma cell line [3] = test: Adhesion assay: [51Cr]-VUP cells to vitronectin; type: cell-based; conditions: 20 μM peptide
Experimental: as §1, §2
(§10) Sodium [^51Cr] chromate was purchased from Amersham International, UK. […]
(§11) 25 μl (about 10,000 cells) were added to each quadruplicate well and the plates incubated at 37° C. in an 8% CO2 atmosphere for 1 hour. […] The radioactivity associated with each well was determined in a gamma counter (1261 Multigamma; Wallac, Sweden). Quadruplicate 25 μl samples of labeled cells were counted as 100% input values. To determine non-specific binding, the ability of cells to bind BSA-coated wells was also assessed. […]
as §5

A375M melanoma cell line [4] = test: Adhesion assay: [51Cr]-A375M cells to vitronectin; type: cell-based, human; conditions: 20 μM peptide
Experimental: as §1, §2, §10, §11, §5

[5] = control peptide, concentration not given
[6] = preliminary screen 2, 20, 200 μM

## GRGDSP [reference compound]
A375M melanoma cell line [1]; 200 μM peptide
  adhesion of [51Cr]-A375M cells to laminin, normalized to absence of peptide (100%): 13.51%±1.25%
A375M melanoma cell line [1]; [5]
  adhesion of [51Cr]-A375M cells to laminin, normalized to absence of peptide (100%): 62.05%±1.88%
VUP melanoma cell line [2]; [5]
  adhesion of [51Cr]-VUP cells to laminin, normalized to absence of peptide (100%): 49.29%±2.74% and 43.05%±7.66%

## H-KPQVTRGDVFTEG-NH2 [A11, linear peptide, reference compound]
αvβ5 integrin; [6]
  effect on the binding of vitronectin to αvβ5: no effect
αvβ3 integrin; 2 μM
  effect on fibronectin binding to αvβ3: little effect
αvβ3 integrin; 20 μM peptide
  fibronectin binding to αvβ3, % of the maximum signal: 58.7%
α5β1 integrin; [6]
  effect on the binding of fibronectin to α5β1: no effect
αIIbβ3 integrin; 20 μM
  effect on the binding of fibrinogen to αIIbβ3: significant effect

## RGDY(OMe)K [A7]
A375M melanoma cell line [1]; 200 μM peptide
  adhesion of [51Cr]-A375M cells to laminin, normalized to absence of peptide (100%): 75.08%±1.53%
αvβ5 integrin; 2 μM and 20 μM
  effect on αvβ5 binding to vitronectin: little effect
VUP melanoma cell line [3]
  adhesion of [51Cr]-VUP cells to vitronectin, normalized to absence of peptide (100%): 78.65%±3.98%
α5β1 integrin; 2 μM and 20 μM
  effect on α5β1 binding to fibronectin: little effect
VUP melanoma cell line [2]; highest concentration (200 μM)
  adhesion of [51Cr]-VUP cells to laminin, normalized to absence of peptide (100%): 64.17%±1.31%
A375M melanoma cell line [4]
  adhesion of [51Cr]-A375M cells to vitronectin, normalized to absence of peptide (100%): 106.99±1.66%

## RGDY(OMe)KE [C1]
αIIbβ3 integrin
  selectivity for αIIbβ3 integrin: high selectivity for αIIbβ3 integrin
αIIbβ3 integrin; 2 nM peptide
  fibrinogen binding to αIIbβ3: 59%
αIIbβ3 integrin; nanomolar concentrations
  effect on the binding of αIIbβ3 to fibrinogen: significant effect
